Test results: the supplement of paper PMC11451515

System: SEM cells
Assay: cell viability relative to DMSO control; higher = less cytotoxic
Conditions: 48 h
Summary of the method: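 Viability is a per-plate percentage relative to DMSO wells, with cell-free wells as background. CellTiter-Glo One luminescence was read after 48 h at 37°C on 1536-well plates (5 μl) of NOMO1 or SEM (500 cells/well) or P12-Ichikawa (1000 cells/well) leukemia cells. The cells had been adapted for at least four passages in each medium and pin-dosed with library compounds in DMSO from 47 μM to 0.79 nM in 11 threefold steps.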

[1] = HPLM + 10% dialyzed FBS, 0.000781 µM
[2] = HPLM + 10% dialyzed FBS, 0.00234 µM
[3] = HPLM + 10% dialyzed FBS, 0.00702 µM
[4] = HPLM + 10% dialyzed FBS, 0.0211 µM
[5] = HPLM + 10% dialyzed FBS, 0.0632 µM
[6] = HPLM + 10% dialyzed FBS, 0.19 µM
[7] = HPLM + 10% dialyzed FBS, 0.569 µM
[8] = HPLM + 10% dialyzed FBS, 1.71 µM
[9] = HPLM + 10% dialyzed FBS, 5.12 µM
[10] = HPLM + 10% dialyzed FBS, 15.4 µM
[11] = HPLM + 10% dialyzed FBS, 46.1 µM
[12] = RPMI 5 mM glucose + 10% FBS, 0.000781 µM
[13] = RPMI 5 mM glucose + 10% FBS, 0.00234 µM
[14] = RPMI 5 mM glucose + 10% FBS, 0.00702 µM
[15] = RPMI 5 mM glucose + 10% FBS, 0.0211 µM
[16] = RPMI 5 mM glucose + 10% FBS, 0.0632 µM
[17] = RPMI 5 mM glucose + 10% FBS, 0.19 µM
[18] = RPMI 5 mM glucose + 10% FBS, 0.569 µM
[19] = RPMI 5 mM glucose + 10% FBS, 1.71 µM
[20] = RPMI 5 mM glucose + 10% FBS, 5.12 µM
[21] = RPMI 5 mM glucose + 10% FBS, 15.4 µM
[22] = RPMI 5 mM glucose + 10% FBS, 46.1 µM
[23] = RPMI 5 mM glucose + 10% dialyzed FBS, 0.000781 µM
[24] = RPMI 5 mM glucose + 10% dialyzed FBS, 0.00234 µM
[25] = RPMI 5 mM glucose + 10% dialyzed FBS, 0.00702 µM
[26] = RPMI 5 mM glucose + 10% dialyzed FBS, 0.0211 µM
[27] = RPMI 5 mM glucose + 10% dialyzed FBS, 0.0632 µM
[28] = RPMI 5 mM glucose + 10% dialyzed FBS, 0.19 µM
[29] = RPMI 5 mM glucose + 10% dialyzed FBS, 0.569 µM
[30] = RPMI 5 mM glucose + 10% dialyzed FBS, 1.71 µM
[31] = RPMI 5 mM glucose + 10% dialyzed FBS, 5.12 µM
[32] = RPMI 5 mM glucose + 10% dialyzed FBS, 15.4 µM
[33] = RPMI 5 mM glucose + 10% dialyzed FBS, 46.1 µM

Compound	cell viability [1] [%]	cell viability [2] [%]	cell viability [3] [%]	cell viability [4] [%]	cell viability [5] [%]	cell viability [6] [%]	cell viability [7] [%]	cell viability [8] [%]	cell viability [9] [%]	cell viability [10] [%]	cell viability [11] [%]	cell viability [12] [%]	cell viability [13] [%]	cell viability [14] [%]	cell viability [15] [%]	cell viability [16] [%]	cell viability [17] [%]	cell viability [18] [%]	cell viability [19] [%]	cell viability [20] [%]	cell viability [21] [%]	cell viability [22] [%]	cell viability [23] [%]	cell viability [24] [%]	cell viability [25] [%]	cell viability [26] [%]	cell viability [27] [%]	cell viability [28] [%]	cell viability [29] [%]	cell viability [30] [%]	cell viability [31] [%]	cell viability [32] [%]	cell viability [33] [%]
COc1ccc(C(C)=O)c(O)c1	93.7	98.2	110	95.1	94.2	111	108	112	114	121	112	104	121	118	124	87.8	114	121	137	120	118	121	105	92.2	118	125	108	126	102	133	132	123	117
CNc1nccc(-c2cccnc2Oc2cc(C(=O)Nc3cccc(C(F)(F)F)c3)ccc2C)n1	97.2	101	115	113	118	104	122	113	109	90.2	97.8	106	92.6	99.8	103	111	103	113	97.4	95.9	72.4	92.9	95.8	97.4	103	107	119	125	103	107	97.9	82.9	97
CCOC(=O)C/1=C(O)/C(=O)N(CC2=CC=CC=C2)C1	97.8	98.5	98	91	110	108	108	120	111	106	86.1	99	104	94.4	90.1	111	111	99.4	99.2	98.3	94.9	83.9	119	113	105	125	109	111	108	125	108	106	93.7
C\C1=C(\C=C(\C#N)C(=O)N1)C2=CC=NC=C2	82.7	86.9	91.6	104	101	113	99.3	111	96.7	126	113	109	92.5	113	109	121	112	108	112	84.9	122	97.8	115	101	111	130	118	117	96.4	109	105	109	114
OC1=CC2=C(C(=C1)O)C(=O)\C=C(/O2)C3=CC=CC=C3	89.7	92.5	93	107	94.5	112	94.4	115	85	61.9	8.24	88.2	103	106	94.2	105	101	92	104	77.2	35.8	4.9	85.8	96.6	95.3	91.5	99.9	97.7	97.3	111	94.5	59.6	11.9
CCC[C@H]1C[C@H](C(=O)N[C@@H]([C@@H]2O[C@@H](SC)[C@@H](O)[C@@H](O)[C@H]2O)[C@H](C)Cl)N(C)C1	79	90.9	91.2	95.1	100	94.1	130	106	109	98.4	99.9	101	114	117	101	132	112	112	117	110	126	124	66.4	84.7	94	87.3	97.7	89.6	110	94.3	97.7	110	101
COC(=O)[C@@H]1[C@H]2C[C@H]3c4[nH]c5ccccc5c4CCN3C[C@@H]2CC[C@@H]1O	86.1	90.4	102	110	104	110	120	115	116	120	116	94.7	112	122	104	110	110	135	119	120	128	125	98.6	109	108	120	125	124	119	133	130	133	118
O=C(c1ccc(Nc2nccc(-c3cc4ccccc4s3)n2)cc1)N1CCC(N2CCCC2)CC1	103	107	108	110	102	104	99.3	82.4	65.2	10.8	2.34	–	–	–	–	–	–	–	–	–	–	–	105	120	98.2	118	106	114	108	97.9	69.3	28.2	2.16
C\C1=C(\C=C(C#N)/C(=O)N1)C2=C[N]3C=CN=C3C=C2	66.9	77.5	81.6	75	82.2	72.6	71.8	87.4	91.4	83.3	94.7	73.7	88	82.8	96.8	90.4	73.6	94.6	85.9	102	99.2	89.6	79.6	72.2	87.6	88	81.8	77.7	86.6	98.8	86.9	93.4	94
O=C(O[C@H]1C[C@H]2CC[C@@H](C1)[N+]21CCCC1)C(O)(c1ccccc1)c1ccccc1.[Cl-]	97.4	96.2	104	103	115	113	115	115	118	113	98.2	90	98.1	88.4	98.9	103	95.8	97.9	127	109	106	99.9	81	101	98.5	108	132	122	115	117	119	117	122
CC(C)C1=C(O)C=C(O)C(=C1)C/2=N/NC(=O)N2C3=CC4=C(C=C3)[N](C)C=C4	–	–	–	–	–	–	–	–	–	–	–	123	112	116	101	72.5	22.7	25.2	20	23.6	20.7	15.4	113	112	111	114	75.2	34.2	29.6	23.8	25	25.3	22
C[C@]12CC[C@@H]3c4ccc(O)cc4C[C@@H](CCCCCCCCC[S+]([O-])CCCC(F)(F)C(F)(F)F)[C@H]3[C@@H]1CC[C@@H]2O (stereo partly specified)	123	112	114	118	113	112	125	117	119	126	109	89.1	84	82.8	93.2	85	80.4	82.4	99.2	80.8	83.7	86.3	120	124	105	111	110	112	125	114	103	102	81.6
Cc1cnc(-c2cc(N3CCN(C(=O)CC[S+](C)(=O)[O-])CC3)ncc2Cl)c(C)c1	103	102	118	119	128	122	124	130	127	125	141	115	151	119	116	118	136	135	140	140	142	136	112	115	107	133	125	132	124	141	155	143	139
CC(C)CC(=O)N[C@H](C(=O)N[C@H](C(=O)N[C@@H](CC(C)C)[C@@H](O)CC(=O)N[C@@H](C)C(=O)N[C@@H](CC(C)C)[C@@H](O)CC(=O)O)C(C)C)C(C)C	94.4	89.1	109	103	74.7	95.9	101	108	97.7	96.6	14.5	82.7	96.7	115	94.7	68.1	104	106	99	98.7	89.6	10.4	93.5	116	92.2	93.4	73.1	110	95.5	99.1	94.9	91.6	10.9
O=C(Nc1c(Cl)cncc1Cl)c1ccc(OC(F)F)c(OCC2CC2)c1	93.8	90.5	94.2	96.8	105	102	109	110	100	90.6	107	86.3	93.9	107	82	90.4	97.4	95.4	93.6	93.5	101	103	92.4	90.5	102	87.6	96.6	94.3	102	111	101	85.8	85.7
O=C(NC[C@H](O)CO)c1ccncc1Nc1ccc(I)cc1F	94.4	104	38.1	118	106	105	88.3	83.4	85.7	85.4	64.4	94.4	97.6	19.3	101	108	89.2	85.7	80.1	68.3	64.6	43.6	97.2	108	35.1	99	99.8	85.3	84.2	70.3	72.7	56.3	54.7
